In PubChem BioAssay AID200 (DTP/NCI, 2004):
Several values for one entry are separate records, joined by “and”; a condition that tells them apart may be missing. Identical values can stand only once. Toxic doses and inconclusive results are not listed. Where a SMILES comes first, the peptide text is derived from it. The star is where a group is joined. Cbz = O=C(OCc1ccccc1)*; Bn = c1ccc(C*)cc1

Tested on: B6C3F1 mice, B16 melanoma ip, median survival T/C
Assay: NCI In Vivo Anticancer Drug Screen. Data for tumor model B16 Melanoma (intraperitoneal) in B6C3F1 mice
Settings: endpoint: median survival time, schedule: Q01DX009 (ip), higher = longer survival
Method: The antitumor activity of compounds was measured in mice bearing transplantable tumors. Survival or tumor size were measured and the results are expressed as the measurement made in the treated group (T) divided by the measurement made in the vehicle treated control group (C). The tumor model used in this assay is B16 Melanoma (intraperitoneal) in B6C3F1 mice

[1] = dose: 25.0 mg/kg/injection, vehicle: Klucel (hydroxypropylcellulose) (HPC)
[2] = dose: 50.0 mg/kg/injection, vehicle: Klucel (hydroxypropylcellulose) (HPC)
[3] = dose: 25.0 mg/kg/injection, vehicle: saline with Tween-80
[4] = dose: 50.0 mg/kg/injection, vehicle: saline with Tween-80
[5] = dose: 100.0 mg/kg/injection, vehicle: saline with Tween-80
[6] = dose: 200.0 mg/kg/injection, vehicle: saline with Tween-80
[7] = dose: 400.0 mg/kg/injection, vehicle: saline with Tween-80
[8] = dose: 6.25 mg/kg/injection, vehicle: saline
[9] = dose: 12.5 mg/kg/injection, vehicle: saline
[10] = dose: 100.0 mg/kg/injection, vehicle: saline
[11] = dose: 200.0 mg/kg/injection, vehicle: saline
[12] = dose: 25.0 mg/kg/injection, vehicle: saline

## Cc1ccc(C2NC(=S)N3C(c4ccc(C)cc4)NC(=S)N23)cc1 (centres undefined)
[1]
  T/C: 119 % of control
[2]
  T/C: 114 % of control
dose: 100.0 mg/kg/injection, vehicle: Klucel (hydroxypropylcellulose) (HPC)
  T/C: 118 % of control
dose: 200.0 mg/kg/injection, vehicle: Klucel (hydroxypropylcellulose) (HPC)
  T/C: 109 % of control and 88 % of control
dose: 400.0 mg/kg/injection, vehicle: Klucel (hydroxypropylcellulose) (HPC)
  T/C: 114 % of control and 105 % of control
dose: 800.0 mg/kg/injection, vehicle: Klucel (hydroxypropylcellulose) (HPC)
  T/C: 101 % of control

## CCC(C)C(=O)OC1C(=O)OC2CC3C(C)=CC(=O)C(O)C3(C)C3C4(O)OCC23C1C(C)C4O (centres undefined)
dose: 2.5 mg/kg/injection, vehicle: saline
  T/C: 160 % of control
dose: 5.0 mg/kg/injection, vehicle: saline
  T/C: 176 % of control

## CC(=O)NC(Cc1ccc(F)cc1)C(=O)O (centres undefined)
[3]
  T/C: 123 % of control
[4]
  T/C: 121 % of control
[5]
  T/C: 121 % of control
[6]
  T/C: 110 % of control
[7]
  T/C: 111 % of control
dose: 800.0 mg/kg/injection, vehicle: saline with Tween-80
  T/C: 121 % of control

## CC(C)[NH-].CC(C)[NH-].[Cl][Pt+2][Cl]
dose: 1.56 mg/kg/injection, vehicle: other
  T/C: 122 % of control
dose: 3.12 mg/kg/injection, vehicle: other
  T/C: 120 % of control

## COc1ccc(-c2cc(=O)c3ccc4c(O)cccc4c3o2)cc1
dose: 3.12 mg/kg/injection, vehicle: saline with Tween-80
  T/C: 97 % of control
dose: 6.25 mg/kg/injection, vehicle: saline with Tween-80
  T/C: 88 % of control
[3]
  T/C: 86 % of control
[4]
  T/C: 93 % of control

## CCN=C=NCCCN(C)C
[8]
  T/C: 109 % of control
[9]
  T/C: 114 % of control

## Cc1c2ccncc2c(COC2OC(CO)C(O)C2O)c2c3ccccc3n(C)c12 (centres undefined)
[9]
  T/C: 123 % of control
[10]
  T/C: 98 % of control
[11]
  T/C: 121 % of control

## Cc1c2c(ccc3ccccc32)c[n+]2ccccc12
dose: 1.56 mg/kg/injection, vehicle: saline
  T/C: 89 % of control
dose: 3.12 mg/kg/injection, vehicle: saline
  T/C: 103 % of control
[8]
  T/C: 105 % of control
[9]
  T/C: 108 % of control
[12]
  T/C: 108 % of control

## O=C(NC(CSCc1ccccc1)C(=O)NC(Cc1ccc(O)cc1)C(=O)O)OCc1ccccc1 (centres undefined) (Cbz-Cys(Bn)-Tyr-OH; configuration not given here)
[5]
  T/C: 90 % of control
[6]
  T/C: 101 % of control
[7]
  T/C: 87 % of control

## ClCc1ccc(Oc2ccc(CCl)cc2)cc1
dose: 3.12 mg/kg/injection, vehicle: Klucel (hydroxypropylcellulose) (HPC)
  T/C: 101 % of control
dose: 6.25 mg/kg/injection, vehicle: Klucel (hydroxypropylcellulose) (HPC)
  T/C: 98 % of control
dose: 12.5 mg/kg/injection, vehicle: Klucel (hydroxypropylcellulose) (HPC)
  T/C: 107 % of control
[1]
  T/C: 112 % of control
[2]
  T/C: 93 % of control

## CSCCC(N)C(=O)O (centres undefined)
[12]
  T/C: 106 % of control
dose: 50.0 mg/kg/injection, vehicle: saline
  T/C: 94 % of control
[10]
  T/C: 100 % of control
[11]
  T/C: 113 % of control
dose: 400.0 mg/kg/injection, vehicle: saline
  T/C: 99 % of control

## C=C(OP(=O)(OC)OC)Sc1ccccc1C
dose: 0.06 mg/kg/injection, vehicle: Klucel (hydroxypropylcellulose) (HPC)
  T/C: 94 % of control
dose: 0.12 mg/kg/injection, vehicle: Klucel (hydroxypropylcellulose) (HPC)
  T/C: 102 % of control
dose: 0.25 mg/kg/injection, vehicle: Klucel (hydroxypropylcellulose) (HPC)
  T/C: 104 % of control
dose: 0.38 mg/kg/injection, vehicle: Klucel (hydroxypropylcellulose) (HPC)
  T/C: 121 % of control
dose: 0.5 mg/kg/injection, vehicle: Klucel (hydroxypropylcellulose) (HPC)
  T/C: 100 % of control
dose: 0.75 mg/kg/injection, vehicle: Klucel (hydroxypropylcellulose) (HPC)
  T/C: 107 % of control
